Where two headings read alike, the source gives them in different places.
Key:
Type in all cases: cell-based
[1] = biological target: T1, hMC1-R (Homo sapiens, UniProt Q01726); assay: cyclic AMP bioassay, hMC1-R
T1 construct: expressed in transfected cells; host or cells: CHO-K1

[2] = biological target: T2, hMC3-R (Homo sapiens, UniProt P41968); assay: cyclic AMP bioassay, hMC3-R; conditions: for Kb: Table 3A, cAMP in CHO-K1 cells, antagonist potency by Schild analysis, read-out: Kb hMC3-R
T2 construct: expressed in transfected cells; host or cells: CHO-K1

[3] = biological target: T3, hMC4-R (Homo sapiens, UniProt P32245); assay: cyclic AMP bioassay, hMC4-R; conditions: for Kb: Table 3A, cAMP in CHO-K1 cells, antagonist potency by Schild analysis, read-out: Kb hMC4-R
T3 construct: expressed in transfected cells; host or cells: CHO-K1

[4] = biological target: T4, hMC5-R (Homo sapiens, UniProt P33032); assay: cyclic AMP bioassay, hMC5-R
T4 construct: expressed in transfected cells; host or cells: CHO-K1
Protocol: Intracellular cyclic AMP (cAMP) levels were determined by an electrochemiluminescence (ECL) assay (Meso Scale Discovery®, Gaithersburg, Md.; referred to hereinafter as MSD). […] Transgenic CHO-K1 cells stably expressing hMC receptor subtypes 1, 3, 4 or 5 were dispensed at a density of approximately 7,000 cells/well in 384-well Multi-Arrays plates (MSD) containing integrated carbon electrodes and coated with anti-CAMP antibody. Increasing concentrations of the test compounds were added and the cells were incubated for approximately 40 minutes at approximately 37° C. […] At the end of the second incubation period read buffer (Tris-buffered solution containing an ECL co-reactant and Triton X-100 at ph 7.8) was added and the cAMP levels in the cell lysates were immediately determined by ECL detection with a Sector Imager 6000 Reader® (MSD). Data were analyzed using a computer-assisted non-linear regression analysis (XL fit; IDBS) and reported as either an EC50 value or a Kb value.
The Kb value reflects the potency of an antagonist and is determined by Schild analysis. In brief, concentration-response curves of an agonist are carried out in the presence of increasing concentrations of an antagonist. […] It is calculated by extrapolating the line on a Schild plot to zero on the y-axis.

[5] = Table 3A, cAMP in CHO-K1 cells, agonist, read-out: EC50 hMC1-R
[6] = Table 3A, cAMP in CHO-K1 cells, agonist, read-out: EC50 hMC5-R

T2 sequence (P41968 whole entry): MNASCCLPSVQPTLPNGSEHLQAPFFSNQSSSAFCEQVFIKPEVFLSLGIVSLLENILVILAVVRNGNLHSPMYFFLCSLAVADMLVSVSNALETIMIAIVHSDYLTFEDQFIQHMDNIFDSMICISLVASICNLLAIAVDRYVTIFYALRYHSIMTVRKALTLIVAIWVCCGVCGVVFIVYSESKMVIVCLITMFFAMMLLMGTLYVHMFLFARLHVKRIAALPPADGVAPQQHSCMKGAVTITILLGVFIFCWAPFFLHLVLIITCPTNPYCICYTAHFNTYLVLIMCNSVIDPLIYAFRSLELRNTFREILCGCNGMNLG
T1 sequence (Q01726 whole entry): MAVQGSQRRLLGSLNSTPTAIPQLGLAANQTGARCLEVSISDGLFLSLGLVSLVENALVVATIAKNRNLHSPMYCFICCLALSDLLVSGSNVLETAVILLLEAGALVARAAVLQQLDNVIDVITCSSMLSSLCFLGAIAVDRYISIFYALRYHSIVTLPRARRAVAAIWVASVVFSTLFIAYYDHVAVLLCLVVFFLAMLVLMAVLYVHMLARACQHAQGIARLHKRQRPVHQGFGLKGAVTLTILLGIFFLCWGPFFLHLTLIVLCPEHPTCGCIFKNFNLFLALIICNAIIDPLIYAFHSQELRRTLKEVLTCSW
T3 sequence (P32245 whole entry): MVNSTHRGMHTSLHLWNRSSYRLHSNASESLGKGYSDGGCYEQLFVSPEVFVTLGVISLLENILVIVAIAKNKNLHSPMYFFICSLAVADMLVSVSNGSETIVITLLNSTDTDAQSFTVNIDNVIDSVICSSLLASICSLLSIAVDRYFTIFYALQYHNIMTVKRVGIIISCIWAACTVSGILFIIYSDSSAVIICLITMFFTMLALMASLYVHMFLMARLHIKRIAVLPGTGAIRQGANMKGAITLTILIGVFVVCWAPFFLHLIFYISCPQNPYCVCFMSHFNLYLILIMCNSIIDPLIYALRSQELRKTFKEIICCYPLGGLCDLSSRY
T4 sequence (P33032 whole entry): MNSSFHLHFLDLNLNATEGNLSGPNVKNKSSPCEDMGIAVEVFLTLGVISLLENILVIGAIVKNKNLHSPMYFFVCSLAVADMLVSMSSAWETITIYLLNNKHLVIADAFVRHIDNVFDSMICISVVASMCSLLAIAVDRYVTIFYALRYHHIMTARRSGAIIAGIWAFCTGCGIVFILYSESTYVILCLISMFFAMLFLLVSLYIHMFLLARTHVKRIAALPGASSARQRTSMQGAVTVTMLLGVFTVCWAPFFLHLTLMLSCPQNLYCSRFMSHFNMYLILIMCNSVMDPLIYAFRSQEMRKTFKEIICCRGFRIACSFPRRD

Q: `CCCC[C@H](NC(C)=O)C(=O)N[C@H]1CSSC[C@@H](C(=O)NCCC(=O)N[C@@H](Cc2ccc(O)cc2)C(=O)NCC(=O)N[C@@H](CCCNC(=N)N)C(=O)N[C@@H](CCCNC(=N)N)C(=O)N[C@@H](CCCCN)C(=O)N[C@@H](CCCNC(=N)N)C(=O)N[C@@H](CCCNC(=N)N)C(=O)N[C@@H](CCC(N)=O)C(=O)N[C@@H](CCCNC(=N)N)C(=O)N[C@@H](CCCNC(=N)N)C(=O)N[C@@H](CCCNC(=N)N)C(N)=O)NC(=O)[C@H](Cc2c[nH]c3ccccc23)NC(=O)[C@H](CCCNC(=N)N)NC(=O)[C@@H](Cc2ccccc2)NC(=O)[C@H](Cc2c[nH]cn2)NC(=O)[C@@H](C)NC1=O` was tested. Which EC50 [1] did it give?
A: 5.66 nM

Q: And the EC50 [2]?
A: 4.7 nM

Q: And the EC50 [3]?
A: 0.422 nM

Q: What about the EC50 [4] of the same compound?
A: 1550 nM

Q: How did the EC50 [1] turn out when `CCCC[C@H](NC(C)=O)C(=O)N[C@H]1CSSC[C@@H](C(=O)NCCC(=O)NCC(=O)N[C@@H](CCCNC(=N)N)C(=O)N[C@@H](CCCNC(=N)N)C(=O)N[C@@H](CCCCN)C(=O)N[C@@H](CCCNC(=N)N)C(=O)N[C@@H](CCCNC(=N)N)C(=O)N[C@@H](CCC(N)=O)C(=O)N[C@@H](CCCNC(=N)N)C(=O)N[C@@H](CCCNC(=N)N)C(=O)N[C@@H](CCCNC(=N)N)C(N)=O)NC(=O)[C@H](Cc2c[nH]c3ccccc23)NC(=O)[C@H](CCCNC(=N)N)NC(=O)[C@@H](Cc2ccccc2)NC(=O)[C@H](Cc2c[nH]cn2)NC(=O)[C@@H](C)NC1=O` was run?
A: 2.36 nM

Q: What about the EC50 [2] of the same compound?
A: 2.74 nM

Q: And the EC50 [3]?
A: 0.26 nM

Q: What about the EC50 [4] of the same compound?
A: 500 nM

Q: With `CC(=O)N[C@H]1CSSC[C@@H](C(=O)N2CCC[C@H]2C(=O)N2CCC[C@H]2C(=O)N[C@@H](CCCCN)C(=O)N[C@@H](CC(=O)O)C(=O)NCCC(=O)N[C@@H](Cc2ccc(O)cc2)C(=O)NCC(=O)N[C@@H](CCCNC(=N)N)C(=O)N[C@@H](CCCCN)C(=O)N[C@@H](CCCCN)C(=O)N[C@@H](CCCNC(=N)N)C(=O)N[C@@H](CCCNC(=N)N)C(=O)N[C@@H](CCCNC(=N)N)C(=O)N[C@@H](CCCNC(=N)N)C(=O)N[C@@H](CCC(N)=O)C(=O)N[C@@H](CCCNC(=N)N)C(N)=O)NC(=O)[C@H](C)NC(=O)[C@H](Cc2c[nH]c3ccccc23)NC(=O)[C@H](CCCNC(=N)N)NC(=O)[C@@H](Cc2ccc3ccccc3c2)NC(=O)[C@H](Cc2c[nH]cn2)NC(=O)[C@H](CCC(=O)O)NC1=O` as the compound, how does the EC50 [1, 5] read?
A: 16.9 nM

Q: And the Kb [2]?
A: 36 nM

Q: What about the Kb [3] of the same compound?
A: 7.12 nM

Q: And the EC50 [4, 6]?
A: 58.9 nM

Q: Which EC50 [1] does the source give for `CCCC[C@H](NC(C)=O)C(=O)N[C@H]1CSSC[C@@H](C(=O)NCCC(=O)N[C@@H](Cc2ccc(O)cc2)C(=O)NCC(=O)N[C@@H](CCCNC(=N)N)C(=O)N[C@@H](CCCCN)C(=O)N[C@@H](CCCNC(=N)N)C(=O)N[C@@H](CCCNC(=N)N)C(=O)N[C@@H](CCCNC(=N)N)C(=O)N[C@@H](CCC(N)=O)C(=O)N[C@@H](CCCNC(=N)N)C(=O)N[C@@H](CCCNC(=N)N)C(=O)N[C@@H](CCCNC(=N)N)C(N)=O)NC(=O)[C@H](Cc2c[nH]c3ccccc23)NC(=O)[C@H](CCCNC(=N)N)NC(=O)[C@@H](Cc2ccccc2)NC(=O)[C@H](Cc2c[nH]cn2)NC(=O)[C@@H](C)NC1=O` here?
A: 7.57 nM

Q: And the EC50 [2]?
A: 4.18 nM

Q: And the EC50 [3]?
A: 0.6 nM

Q: And the EC50 [4]?
A: 1790 nM

Q: For `CC(=O)N[C@H]1CSSC[C@@H](C(=O)N2CCC[C@H]2C(=O)N2CCC[C@H]2C(=O)N[C@@H](CCCCN)C(=O)N[C@@H](CC(=O)O)C(=O)NCCOCCOCC(=O)N[C@@H](Cc2ccc(O)cc2)C(=O)NCC(=O)N[C@@H](CCCNC(=N)N)C(=O)N[C@@H](CCCCN)C(=O)N[C@@H](CCCCN)C(=O)N[C@@H](CCCNC(=N)N)C(=O)N[C@@H](CCCNC(=N)N)C(=O)N[C@@H](CCC(N)=O)C(=O)N[C@@H](CCCNC(=N)N)C(=O)N[C@@H](CCCNC(=N)N)C(=O)N[C@@H](CCCNC(=N)N)C(N)=O)NC(=O)[C@H](C)NC(=O)[C@H](Cc2c[nH]c3ccccc23)NC(=O)[C@H](CCCNC(=N)N)NC(=O)[C@@H](Cc2ccc3ccccc3c2)NC(=O)[C@H](Cc2c[nH]cn2)NC(=O)[C@H](CCC(=O)O)NC1=O`, which EC50 [1, 5] is on record?
A: 12.1 nM

Q: And the Kb [2]?
A: 30.3 nM

Q: And the Kb [3]?
A: 1.81 nM

Q: And the EC50 [4, 6]?
A: 70 nM

Q: What does the source list for `CCCC[C@H](NC(C)=O)C(=O)N[C@H]1CSSC[C@@H](C(=O)NCCC(=O)N[C@@H](Cc2ccc(O)cc2)C(=O)NCC(=O)N[C@@H](CCCNC(=N)N)C(=O)N[C@@H](CCCCN)C(=O)N[C@@H](CCCCN)C(=O)N[C@@H](CCCNC(=N)N)C(=O)N[C@@H](CCC(N)=O)C(=O)N[C@@H](CCCNC(=N)N)C(=O)N[C@@H](CCCNC(=N)N)C(=O)N[C@@H](CCCNC(=N)N)C(=O)N[C@@H](CCCNC(=N)N)C(N)=O)NC(=O)[C@H](Cc2c[nH]c3ccccc23)NC(=O)[C@H](CCCNC(=N)N)NC(=O)[C@@H](Cc2ccccc2)NC(=O)[C@H](Cc2c[nH]cn2)NC(=O)[C@@H](C)NC1=O`?
A: EC50 [1]: 5.9 nM; EC50 [2]: 7.73 nM; EC50 [3]: 1.02 nM; EC50 [4]: 2890 nM

Source: patent US20090232838A1, “Ligands of melanocortin receptors” (priority 2005, published 2009)
